Laboratory results: US20010011063A1, “Substituted 2,4-diamino-1,3,5-triazines, processes for their preparation and their use as herbicides and plant growth regulators” (priority 1999, published 2001)

Experiments:
Format in all cases: in vivo
[1] = system: Stellaria media, Lolium multiflorum, Amaranthus retroflexus, Sinapis alba, Avena sativa and Settaria viridis; assay: Pre-emergence effect on weeds (greenhouse pot test); conditions: application rate of 1 kg or less of active substance per hectare; visually scored after 3 to 4 weeks by comparison with untreated controls
Source text: Seeds or rhizome pieces of mono and dicotyledonous weed plants are placed in sandy loam soil in plastic pots and covered with soil. The compounds according to the invention which are formulated in the form of wettable powders or emulsion concentrates are then applied to the soil cover in the form of aqueous suspensions or emulsions at an application rate of 600 to 800 l of water/ha (converted), in various dosages.

[2] = system: Sinapis alba, Echinochloa crus-galli, Lolium multiforum, Stellaria media, Cyperus iria, Amaranthus retroflexus, Settaria viridis and Avena sativa; assay: Post-emergence effect on weeds (greenhouse pot test); conditions: application rate of 1 kg or less of active substance per hectare; treated at the three-leaf stage; scored visually after about 3 to 4 weeks vs untreated controls
Procedure: Seeds or rhizome pieces of mono- and dicotyledonous weeds are placed in sandy loam soil in plastic pots, covered with soil and grown in a greenhouse under good growth conditions. Three weeks after sowing, the test plants are treated at the three-leaf stage. The compounds according to the invention, formulated as wettable powders or emulsion concentrates, are sprayed, at various dosages, onto the green parts of the plants at an application rate of 600 to 800 l of water/ha (converted). After the test plants had remained in the greenhouse for about 3 to 4 weeks under optimum growth conditions, the effect of the preparations is scored visually by comparison with untreated controls. The agents according to the invention also have good herbicidal activity post-emergence against a broad spectrum of economically important weed grasses and broad-leaved weeds.

[3] = system: Cyperus monti, Echinochloa crus-galli and Sagitaria pygmaea; assay: Action on harmful plants in rice (paddy rice conditions); conditions: poured into the dammed water, visual scoring about three weeks after application; further: test concentration or dose not given here
Source text: Transplanted and sown rice and also typical rice weeds (gramineous and broad-leaved) are cultivated in closed plastic pots in a greenhouse to the three-leaf stage (Echinochloa crus-galli 1.5-leaf) under paddy rice conditions (height of water: 2-3 cm). This is followed by treatment with the compounds according to the invention. For this purpose, the formulated active compounds are suspended, dissolved or emulsified in water and applied by pouring them into the dammed water around the test plants in different dosages.

CC(C)Cc1nc(N)nc(NC(CCCc2ccccc2)C2CCC2)n1 (stereo not drawn) [Example 3-59]
very good herbicidal activity: herbicidal activity pre-emergence against harmful plants [1] | herbicidal activity post-emergence against harmful plants [2] | herbicidal activity against harmful plants which are typical for rice crops [3]

CC(C)(F)c1nc(N)nc(NC(CCCc2ccccc2)C2CCC2)n1 (stereo not drawn) [Example 3-64]
very good herbicidal activity: herbicidal activity pre-emergence against harmful plants [1] | herbicidal activity post-emergence against harmful plants [2] | herbicidal activity against harmful plants which are typical for rice crops [3]

CC(C)c1nc(N)nc(NC(CCCc2cccc(Cl)c2)C2CCC2)n1 (stereo not drawn) [Example 3-67]
very good herbicidal activity: herbicidal activity pre-emergence against harmful plants [1] | herbicidal activity post-emergence against harmful plants [2] | herbicidal activity against harmful plants which are typical for rice crops [3]

CC(C)(F)c1nc(N)nc(NC(CCCc2cccc(Cl)c2)C2CCC2)n1 (stereo not drawn) [Example 3-68]
very good herbicidal activity: herbicidal activity pre-emergence against harmful plants [1] | herbicidal activity post-emergence against harmful plants [2] | herbicidal activity against harmful plants which are typical for rice crops [3]

Cc1cccc(CCCC(Nc2nc(N)nc(C(C)C)n2)C2CCC2)c1 (stereo not drawn) [Example 3-71]
very good herbicidal activity: herbicidal activity pre-emergence against harmful plants [1] | herbicidal activity post-emergence against harmful plants [2] | herbicidal activity against harmful plants which are typical for rice crops [3]

Cc1cccc(CCCC(Nc2nc(N)nc(C(C)(C)F)n2)C2CCC2)c1 (stereo not drawn) [Example 3-72]
very good herbicidal activity: herbicidal activity pre-emergence against harmful plants [1] | herbicidal activity post-emergence against harmful plants [2] | herbicidal activity against harmful plants which are typical for rice crops [3]

COc1cccc(CCCC(Nc2nc(N)nc(C(C)C)n2)C2CCC2)c1 (stereo not drawn) [Example 3-75]
very good herbicidal activity: herbicidal activity pre-emergence against harmful plants [1] | herbicidal activity post-emergence against harmful plants [2] | herbicidal activity against harmful plants which are typical for rice crops [3]

COc1cccc(CCCC(Nc2nc(N)nc(C(C)(C)F)n2)C2CCC2)c1 (stereo not drawn) [Example 3-76]
very good herbicidal activity: herbicidal activity pre-emergence against harmful plants [1] | herbicidal activity post-emergence against harmful plants [2] | herbicidal activity against harmful plants which are typical for rice crops [3]

Nc1nc(NC(CCCc2ccc(Cl)cc2Cl)C2CC2)nc(C(F)(F)F)n1 (stereo not drawn) [Example 4-6]
very good herbicidal activity: herbicidal activity pre-emergence against harmful plants [1] | herbicidal activity post-emergence against harmful plants [2] | herbicidal activity against harmful plants which are typical for rice crops [3]

Cc1nc(N)nc(NC(CCCc2ccccc2)C2CC2)n1 (stereo not drawn) [Example 4-8]
very good herbicidal activity: herbicidal activity pre-emergence against harmful plants [1] | herbicidal activity post-emergence against harmful plants [2] | herbicidal activity against harmful plants which are typical for rice crops [3]

CCc1nc(N)nc(NC(CCCc2ccccc2)C2CC2)n1 (stereo not drawn) [Example 4-9]
very good herbicidal activity: herbicidal activity pre-emergence against harmful plants [1] | herbicidal activity post-emergence against harmful plants [2] | herbicidal activity against harmful plants which are typical for rice crops [3]

CC(C)c1nc(N)nc(NC(CCCc2ccccc2)C2CC2)n1 (stereo not drawn) [Example 4-11]
very good herbicidal activity: herbicidal activity pre-emergence against harmful plants [1] | herbicidal activity post-emergence against harmful plants [2] | herbicidal activity against harmful plants which are typical for rice crops [3]

CC(C)(F)c1nc(N)nc(N[C@H](CCCc2ccccc2)C2CC2)n1 [Example 4-12, 2-Amino-4-(1-fluoro-1-methylethyl)-6-[(1 R)4-phenyl-1-cyclopropylbutylamino]-1,3,5-triazine]
very good herbicidal activity: herbicidal activity pre-emergence against harmful plants [1] | herbicidal activity post-emergence against harmful plants [2] | herbicidal activity against harmful plants which are typical for rice crops [3]

CC(C)(F)c1nc(N)nc(NC(CCCc2cccc(Cl)c2)C2CC2)n1 (stereo not drawn) [Example 4-18]
very good herbicidal activity: herbicidal activity pre-emergence against harmful plants [1] | herbicidal activity post-emergence against harmful plants [2] | herbicidal activity against harmful plants which are typical for rice crops [3]

CC(C)c1nc(N)nc(NC(CCCc2ccccc2)C2CCC2)n1 (stereo not drawn) [Example 4-58]
very good herbicidal activity: herbicidal activity pre-emergence against harmful plants [1] | herbicidal activity post-emergence against harmful plants [2] | herbicidal activity against harmful plants which are typical for rice crops [3]

CC(C)Cc1nc(N)nc(NC(CCCc2ccccc2)C2CCC2)n1 (stereo not drawn) [Example 4-59]
very good herbicidal activity: herbicidal activity pre-emergence against harmful plants [1] | herbicidal activity post-emergence against harmful plants [2] | herbicidal activity against harmful plants which are typical for rice crops [3]

CC(C)(F)c1nc(N)nc(NC(CCCc2ccccc2)C2CCC2)n1 (stereo not drawn) [Example 4-64]
very good herbicidal activity: herbicidal activity pre-emergence against harmful plants [1] | herbicidal activity post-emergence against harmful plants [2] | herbicidal activity against harmful plants which are typical for rice crops [3]

CC(C)c1nc(N)nc(NC(CCCc2cccc(Cl)c2)C2CCC2)n1 (stereo not drawn) [Example 4-67]
very good herbicidal activity: herbicidal activity pre-emergence against harmful plants [1] | herbicidal activity post-emergence against harmful plants [2] | herbicidal activity against harmful plants which are typical for rice crops [3]

CC(C)(F)c1nc(N)nc(NC(CCCc2cccc(Cl)c2)C2CCC2)n1 (stereo not drawn) [Example 4-68]
very good herbicidal activity: herbicidal activity pre-emergence against harmful plants [1] | herbicidal activity post-emergence against harmful plants [2] | herbicidal activity against harmful plants which are typical for rice crops [3]

Cc1cccc(CCCC(Nc2nc(N)nc(C(C)C)n2)C2CCC2)c1 (stereo not drawn) [Example 4-71]
very good herbicidal activity: herbicidal activity pre-emergence against harmful plants [1] | herbicidal activity post-emergence against harmful plants [2] | herbicidal activity against harmful plants which are typical for rice crops [3]

Cc1cccc(CCCC(Nc2nc(N)nc(C(C)(C)F)n2)C2CCC2)c1 (stereo not drawn) [Example 4-72]
very good herbicidal activity: herbicidal activity pre-emergence against harmful plants [1] | herbicidal activity post-emergence against harmful plants [2] | herbicidal activity against harmful plants which are typical for rice crops [3]

COc1cccc(CCCC(Nc2nc(N)nc(C(C)C)n2)C2CCC2)c1 (stereo not drawn) [Example 4-75]
very good herbicidal activity: herbicidal activity pre-emergence against harmful plants [1] | herbicidal activity post-emergence against harmful plants [2] | herbicidal activity against harmful plants which are typical for rice crops [3]

COc1cccc(CCCC(Nc2nc(N)nc(C(C)(C)F)n2)C2CCC2)c1 (stereo not drawn) [Example 4-76]
very good herbicidal activity: herbicidal activity pre-emergence against harmful plants [1] | herbicidal activity post-emergence against harmful plants [2] | herbicidal activity against harmful plants which are typical for rice crops [3]

CC(C)Cc1nc(N)nc(NC(Cc2ccccc2)CC2CC2)n1 (stereo not drawn) [Example 5-1]
very good herbicidal activity: herbicidal activity pre-emergence against harmful plants [1] | herbicidal activity post-emergence against harmful plants [2] | herbicidal activity against harmful plants which are typical for rice crops [3]

CC(C)(F)c1nc(N)nc(NC(Cc2ccccc2)CC2CC2)n1 (stereo not drawn) [Example 5-2]
very good herbicidal activity: herbicidal activity pre-emergence against harmful plants [1] | herbicidal activity post-emergence against harmful plants [2] | herbicidal activity against harmful plants which are typical for rice crops [3]
